Assay results as given in patent US12350317B2, “Immunotherapy for the treatment and prevention of inflammatory bowel disease” (THE UAB RESEARCH FOUNDATION, priority 2019, dated 2025).

Experiments:
[1] = system: CBir1Tg CD4+CD44+ TM cells; test: CBir1Tg CD4+ TM cells co-cultured with APCs and MEP1 in vitro; format: cell-based, mouse
Description: (§3) (A) CBir1Tg CD4^+CD44^+ TM cells were isolated from the spleen, labeled with CFSE, and co-cultured with irradiated APCs isolated from C57BL/6 mice in the presence of 1 μg/ml of MEP1, and 100 nM rapamycin, 1 mM metformin, or both. Absolute numbers of live and proliferating CD4^+ T cells post 90 hrs of culturing are shown respectively. OVA p323-339 stimulation was used as negative control. (B) Strategy of adoptive transfer, immunization, and ablation of donor CD4^+ TM cells. […] Mice without challenge and mice treated with 0.2% CMC post challenge were used as controls. Lymphocytes were isolated from the spleen on Day 42 and analyzed with FACS. Representative plots of donor/host CD4^+, donor CD4^+ TM, Treg, and Tfh are shown in (C), whereas statistics of corresponding absolute numbers are shown in (D-G).
(§4) This was tested in vivo by targeting established microbiota antigen-specific CD4+ TM cells in the periphery. […] Upon antigen challenge, on days 28 and 35, recipient mice were treated with metformin, rapamycin, the combination of both, or drug vehicle for 5 consecutive days, respectively. Recipient mice with immunization but no antigen challenge were used as controls (FIG. 10B). Assessed by the absolute numbers recovered from the spleen.

[2] = system: donor CBir1Tg CD4+ TM cells; test: Ablation of pre-existing antigen-specific CD4+ TM cells in C57BL/6 mice upon MEP1 challenge; format: in vivo, mouse; conditions: rapamycin 1 μg/g/day, metformin 150 μg/g/day i.p. 5 days after MEP1 challenge days 28 and 35; day 42
Description: as §3, §4

[3] = system: ribosomal protein S6 kinase; test: S6K phosphorylation in flagellin-specific CD4+ T cells from Crohn's patients; format: cell-based, human; conditions: re-stimulation with pooled flagellin
Description: (§5) Microbiota flagellin-specific CD4^+ T cells were labeled with proliferation dye and re-stimulated with autologous APCs plus Fla mix in the presence of 50 nM rapamycin, 1 mM metformin, or both. Phosphorylation of S6K was examined after 6 hours of stimulation (H and K), whereas CD4^+ T cell survival (I and L) and proliferation (J and M) were examined after 6-7 days.
(§6) Therefore, in order to target the metabolism of both naïve and memory CD4+ subsets, rapamycin, metformin, or both were tested, for their inhibitory effects on these cells post expansion.
Therefore, in order to target the metabolism of both naïve and memory CD4^+ subsets, rapamycin, metformin, or both, were tested for their inhibitory effects on these cells post expansion.

[4] = system: microbiota flagellin-specific CD4+ T cells; test: Survival, proliferation and cytokine production of flagellin-specific CD4+ T cells from Crohn's patients; conditions: for Cytokine production (IFNγ, TNFα and IL-17A) upon re-stimulation: 6-7 hours re-stimulation with APCs and Fla mix
Description: as §5
Expanded CD154^+ antigen-specific CD4^+ T cells were re-stimulated with autologous APCs and Fla mix, Fla mix with rapamycin, Fla mix with metformin, or Fla mix with rapamycin and metformin for 6-7 hours, with BFA added for the last 4 hours. CD4^+ T cells stimulated with CD3/CD28 beads were used as a positive control, whereas cells with no antigen added were used as a negative control. The cells were then stained for cytokines (TNF and IL-17A), activation of mTOR via the downstream marker phospho-S6K and analyzed by flow cytometry.
as §6

S6 kinase (S6K) = test: S6K phosphorylation in naive CBir1Tg CD4+ T cells co-cultured with APCs and MEP1; format: cell-based, mouse; conditions: 100 nM rapamycin, APCs and MEP1, 20 hrs
Description: (§1) CBir1Tg CD4^+CD44-naïve T cells were isolated from the spleen and co-cultured with irradiated antigen-presenting-cells (APCs) isolated from C57BL/6 mice, in the presence of 1 μg/ml of MEP1 with (blue) or without (red) 100 nM rapamycin. Phosphorylation of S6K in CBir1Tg CD4^+ T cells was examined after 20 hrs of stimulation. CBir1Tg CD4^+ T cell viability, uptake of fluorescent glucose analog 2-NBDG, proliferation, and Treg induction were determined with FACS after 90 hrs of co-culture. OVA p323-339 stimulation was used as a negative control (grey). Representative flow plots are shown in (A-D, and I), and statistics of 3 replicated experiments are shown in (E-H, and J). For in vitro and in vivo suppression assays, naïve CD4+ cells were isolated from CBir1Tg·Foxp3gfp spleen and cultured with MEP1 and rapamycin for 6 days for Treg induction. Then live CD4^+CD25^+GFP^+ Treg cells were sorted with flow cytometry as CBir1Tg iTreg Rapa. Live CD4^+CD25^+GFP^+ cells freshly isolated from naïve CBir1Tg·Foxp3gfp spleen were used as control (CBir1Tg tTreg) for suppression assay in vitro. CFSE labeled responder CD4+CD44-(Tn) cells were isolated from congenic CBir1Tg or C57BL/6 mouse and co-cultured with indicated ratios of CBir1Tg Treg cells in the presence of 1 μg/ml MEP1 or anti-mouse-CD3 and APCs for 3.5 days. […]

[5] = system: CBir1Tg CD4+CD44- naive T cells; test: Naive CBir1Tg CD4+ T cell glucose uptake, viability, proliferation and Treg induction in vitro; format: cell-based, mouse
Description: as §1, with “CBir1Tg CD4^+ T cell viability, uptake of fluorescent glucose analog 2-NBDG, proliferation, and Treg induction were determined with FACS after 90 hrs of co-culture.” left out, “days. Representative graphs of antigen-specific and bystander suppression are shown in (K and M), respectively, and accumulated percentage of suppression are shown in (L and N).” for “days.”

DR0701 (HLA-DR7) = test: Flagellin peptide binding to HLA-DR (DR0701); set-up: species or system human; conditions: <20 = high affinity, 20-100 moderate affinity
Source text: (§2) CD4+ T cell effectors mediate colitis in mouse models. These effectors, for example, Th1 and Th17 are short-lived. The CD4+ T cell memory pool is a reservoir of chronicity and regenerating T effector cells. CD4+ TM cells are widely distributed in CBir1 TCR Tg mice (FIG. 1). Flagellin specific T cells can cause murine colitis, mainly Th17 mediated. Anti-CBir1 was detected in 50% of Crohn's patients and in multiple mouse models. The presence of anti-Cbir1 in CD patients is associated with small bowel (SB) involvement, fibrostenosis and internal perforating phenotypes, independent of anti-Saccharomyces cerevisiae antibodies (ASCA), anti-[…] antibodies and anti-OmpC antibodies. A subset of Crohn's patients has broad IgG reactivity to microbiota flagellins (FIG. 2). Flagellins have promiscuous T cell receptor epitopes. Therefore, whether microbiota flagellins contain epitope peptides that are broadly reactive in humans and can stimulate both TM and Tregs across a population of patients with Crohn's disease was studied. Peptides predicted to bind to 8 or more HLA-DRB1 molecules and to mouse H-2^b or H-2^d were studied. Thirty predicted flagellin epitopes were tested for binding to the four most common HLA-DR dimers (HLA-DR3, HLA-DR7, HLA-DR11 and HLA-DR15). All predicted flagellin epitopes bound at least one of the four HLA-DR dimers, and twenty of the predicted epitopes bound two or more.

DR1501 (HLA-DR15) = DR1501 (HLA-DR15) (Homo sapiens, UniProt P01903+P01911); test: Flagellin peptide binding to HLA-DR (DR1501); conditions: <20 = high affinity, 20-100 moderate affinity
Source text: as §2

DR1101 (HLA-DR11) = DR1101 (HLA-DR11) (Homo sapiens, UniProt P01903+P01911, A100R/A169T/A87E/I96F/K41T/L162R/M171V/P40S/Q125H/Q178H/Q39Y/Q99D/R42S/S66Y/T262R/V115G/W38E); test: Flagellin peptide binding to HLA-DR (DR1101); conditions: <20 = high affinity, 20-100 moderate affinity
Source text: as §2

Sequence of DR1101 (HLA-DR11) (P01903 26-254, other chains not shown): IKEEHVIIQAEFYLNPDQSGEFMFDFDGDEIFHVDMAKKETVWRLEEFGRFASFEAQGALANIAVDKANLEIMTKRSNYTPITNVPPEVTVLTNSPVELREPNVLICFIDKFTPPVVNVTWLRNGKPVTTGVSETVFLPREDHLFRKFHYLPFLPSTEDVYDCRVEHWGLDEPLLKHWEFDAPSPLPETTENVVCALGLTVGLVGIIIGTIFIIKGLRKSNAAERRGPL

In the case of `CN(C)C(=N)N=C(N)N` [metformin], the “Cell death / survival and inhibition of cell proliferation of CD4+ TM cells” value [1] is reported as “comparable effect, or even worse, than rapamycin”, the “Expansion of CBir1Tg CD4+ cells after antigen challenge (absolute numbers in spleen)” value [2] is reported as “no inhibitory result” and the “Inhibitory effect on the mTOR pathway” value ([3]; 1 mM metformin alone) is reported as “no inhibitory effect”. For the same compound, the Cell death ([4]; 50 nM rapamycin or 1 mM metformin, 6-7 days) was “lesser extent of increased cell death”, the Cell proliferation ([4]; 50 nM rapamycin, 1 mM metformin, or both, 6-7 days) was “decreased proliferation” and the “Cytokine production (IFNγ, TNFα and IL-17A) upon re-stimulation” value [4] was “neither rapamycin or metformin treatment altered the cytokine production”.
With `CO[C@H]1C[C@@H]2CC[C@@H](C)[C@@](O)(O2)C(=O)C(=O)N2CCCC[C@H]2C(=O)O[C@H]([C@H](C)C[C@@H]2CC[C@@H](O)[C@H](OC)C2)CC(=O)[C@H](C)/C=C(\C)[C@@H](O)[C@@H](OC)C(=O)[C@H](C)C[C@H](C)/C=C/C=C/C=C/1C` [rapamycin] the “Reduction of phosphorylation of S6 kinase (S6K)” value (S6 kinase (S6K)) was “roughly 60%”, the “Reduction of cell proliferation” value ([5]; 100 nM rapamycin, in presence of cognate antigen MEP1, 90 hrs) was “roughly 10 fold” and the “Increase of Treg cells in percentage” value ([5]; MEP1 and rapamycin vs MEP1 alone) was 20 fold. The “Reduction of phosphorylation of S6K compared to antigen alone” value ([3]; 50 nM rapamycin, 6 hours) was roughly 50% and the “Cytokine production (IFNγ, TNFα and IL-17A) upon re-stimulation” value [4] was “no effect”.
MATEMVKYSNANILSQAGQ [CBir1 p456-475] was tested, and the “EC50 Ratio” value (DR0701 (HLA-DR7)) was 3.7 and the “EC50 Ratio” value (DR1501 (HLA-DR15)) was 0.32.
In the case of “MVVQHNLRAMNANRMLGIT [A4 Fla3 p1-19, Lachnospiraceae A4 Fla3 flagellin peptide 1-19]”, the “EC50 Ratio” value (DR0701 (HLA-DR7)) is reported as 2.5, the “EC50 Ratio” value (DR1101 (HLA-DR11)) is reported as 0.2 and the “EC50 Ratio” value (DR1501 (HLA-DR15)) is reported as 0.32.
With “MVVQHNLRAMNSNRMLGITQ [FlaX p1-20, Lachnospiraceae FlaX flagellin peptide 1-20]” the “EC50 Ratio” value (DR1501 (HLA-DR15)) was 0.33.
